Experimental data: publication PMC11402846, “Does a postmortem redistribution affect the concentrations of the 7 azaindole-derived synthetic cannabinoid 5F-MDMB-P7AICA in tissues and body fluids following pulmonary administration to pigs?” (Archives of Toxicology, 2024)

Experiments:
[1] = Perimortem and postmortem concentrations in tissues and body fluids after pulmonary administration of 5F-MDMB-P7AICA to pigs (LC-MS/MS); assay type: in vivo; settings: pig
Experimental: The experiments were conducted in compliance with the German legislation on protection of animals and the National Institutes of Health Guide for the Care and Use of Laboratory Animals (permission number 32/2018). Six domestic male pigs (Swabian Hall strain; body weight [BW] 40–51.2 kg, 3 months old) were kept with free access to water and standard daily food (OlymPig fattening feed, Raiffeisen, Münster, Germany). One night prior to the experiments, the animals were kept fasting. […] The room temperature was 22 ± 1 °C with a humidity of 55 ± 10%.
As previously described (Doerr et al. [2020]; Schaefer et al. [2019], [2020a]), an ethanolic solution of 5 mg/mL 5F-MDMB-P7AICA was prepared. An aliquot of 1.600–2.048 mL was filled up with ethanol to a total volume of 2 mL, if needed to achieve a concentration of 200 µg per kg BW. The SC was administered inhalatively over 6.5–8 min, using a M-Neb flow + ventilation ultrasonic nebulizer MN-300/7 (Nebutec, Elsenfeld, Germany) in the inspiration-triggered mode.
Animal euthanasia was conducted eight hours after the drug administration using T 61 (embutramide, 0.12 mL/kg BW, Intervet Deutschland GmbH, Unterschleißheim, Germany). Afterwards, the abdominal cavity was opened. Samples of the following organs, tissues and body fluids were collected (PMI 0) and stored at − 20 °C until further analysis: Brain (cerebrum), lungs and liver with no differentiation between the lobes, kidneys, muscle tissue (from the hindleg), adipose tissue (subcutaneous (sc), dorsal, perirenal), bile fluid, duodenum content, urine (only at PMI 0) and PB (V. jugularis) as well as CB.
The abdominal cavity was sutured leaving the organs in situ and the animal bodies were kept at room temperature in a supine position. Analogously, samples were taken again after 24, 48 and 72 h (PMI 1–3), respectively. Yet, PM PB specimens were obtained by sampling the coagulated blood from the V. femoralis or V. brachialis. For this purpose, the whole vessel was sampled and the blood was drawn therefrom using a pipette with a wide lumen.
Specimens were prepared according to a previous published method (Schaefer et al. [2017], [2019], [2020a]) with changes regarding the applied buffers and the amount of acetonitrile. An amount of 2 g of solid tissue (brain, lung, liver, kidney and muscle tissue) was homogenized (1:5 w/w with water), respectively and 1 g of body fluids (bile fluid, duodenum content, and urine) was diluted (1:10 w/w for bile and duodenum content, 1:5 w/w for urine, respectively, with water). The samples were stored at − 20 °C.
To determine the standard addition calibration curves, four 0.5 g aliquots were added to 20 µL of an ethanolic stable-isotope-labeled internal standard solution (SIL-IS, 1 ng/20 µL AB-FUBINACA-d4) and 25 µL of ethanol or an ethanolic solution of the analytes.
Subsequently, the solution was mixed with 500 µL of acetate buffer and 50 µL of β-glucuronidase/arylsulfatase and incubated for 2 h at 60 °C to induce enzymatic hydrolysis of the glucuronidated DBA (phase-II metabolite).
For the following protein precipitation, the samples were mixed with 500 µL of acetonitrile and centrifuged at 3500g for 8 min. The supernatants were transferred to 1 mL phosphate buffer (pH 9) vortexed and centrifuged at 3500g for 8 min again.
Solid phase extraction (SPE) was carried out using Strata C18 end capped cartridges (Phenomenex, Aschaffenburg, Germany), previously conditioned with 2 × 3 mL methanol and 3 mL phosphate buffer. After loading the samples, the columns were washed with 3 mL phosphate buffer, 3 mL acetic acid (0.25 M) and 3 mL deionized water, respectively. 60 μL acetone was added and columns were dried for 5 min using negative pressure (about 33 kPa). Thereafter, the analytes were eluted with a mixture of 1.5 mL methanol-acetone (1:1, v/v) and the eluate was evaporated under a gentle stream of nitrogen at 60 °C. […]

[2] = set-up: method as in Walle et al. [2023]; settings: authentic fatal case, comparable survival time after drug intake; ref Walle et al. [2023]; cited from earlier work
[3] = death case, cited from earlier work; for central blood (CB) levels versus peripheral blood (PB) levels: PMI: 20 h, ref Zaitsu et al. ([2015])
[4] = 200 µg/kg BW inhalative, PMI 0 (8 h after administration)
[5] = 200 µg/kg BW inhalative, PMI 1 (24 h after euthanasia, room temperature)
[6] = 200 µg/kg BW inhalative, PMI 2 (48 h after euthanasia, room temperature)
[7] = 200 µg/kg BW inhalative, PMI 3 (72 h after euthanasia, room temperature)

In the case of `CC(C)(C)C(NC(=O)c1cn(CCCCCF)c2ncccc12)C(=O)O` (stereo not drawn) [DBA, 5F-MDMB-P7AICA-dimethylbutanoic acid], the “Mean concentration ± SD in CB (central blood)” value (from here on “Mean concentration ± SD in CB”) [1, 4] is reported as 0.22 ± 0.11 n = 6 ng/mL, the “Mean concentration ± SD in bile fluid” value [1, 4] is reported as 57 ± 100 n = 6 ng/g and the “Mean concentration ± SD in brain” value [1, 4] is reported as “tested negative and neg”. For the same compound, the “Mean concentration ± SD in dorsal fat” value [1, 4] was 0.60 ± 0.35 n = 6 ng/g, the “Mean concentration ± SD in duodenum content” value [1, 4] was 82 ± 72 n = 6 ng/g and the “Mean concentration ± SD in kidney” value [1, 4] was 5.4 ± 4.7 n = 6 ng/g. For the same compound, the “Mean concentration ± SD in liver” value [1, 4] was 0.87 ± 0.37 n = 6 ng/g, the “Mean concentration ± SD in lung” value [1, 4] was 0.20 ± 0.071 n = 4 ng/g and the “Mean concentration ± SD in muscle” value [1, 4] was 0.14 ± 0.011 n = 3 ng/g. The “Mean concentration ± SD in perirenal fat” value [1, 4] was 8.8 ± 5.6 n = 6 ng/g, the “Mean concentration ± SD in s.c. fat” value [1, 4] was 1.1 ± 1.1 n = 6 ng/g and the “Mean concentration ± SD in urine” value [1, 4] was 78 ± 45 n = 6 ng/g. For the same compound, the “Mean concentration ± SD in CB” value [1, 5] was 0.32 ± 0.40 n = 5 ng/mL, the “Mean concentration ± SD in PB (peripheral blood)” value (“Mean concentration ± SD in PB” for short) [1, 5] was 0.47 ± 0.21 n = 6 ng/mL and the “Mean concentration ± SD in bile fluid” value [1, 5] was 37 ± 71 n = 6 ng/g. For the same compound, the “Mean concentration ± SD in brain” value [1, 5] was 0.13 ± 0.056 n = 6 ng/g, the “Mean concentration ± SD in dorsal fat” value [1, 5] was 0.28 ± 0.19 n = 6 ng/g and the “Mean concentration ± SD in duodenum content” value [1, 5] was 13 ± 15 n = 6 ng/g. For the same compound, the “Mean concentration ± SD in kidney” value [1, 5] was 5.1 ± 5.0 n = 6 ng/g, the “Mean concentration ± SD in liver” value [1, 5] was 1.2 ± 1.4 n = 6 ng/g and the “Mean concentration ± SD in lung” value [1, 5] was 0.33 ± 0.21 n = 5 ng/g. The “Mean concentration ± SD in muscle” value [1, 5] was 0.10 ± 0.027 n = 6 ng/g, the “Mean concentration ± SD in perirenal fat” value [1, 5] was 1.0 ± 1.2 n = 5 ng/g and the “Mean concentration ± SD in s.c. fat” value [1, 5] was 0.45 ± 0.46 n = 5 ng/g. The “Mean concentration ± SD in CB” value [1, 6] was 0.21 ± 0.17 n = 5 ng/mL, the “Mean concentration ± SD in PB” value [1, 6] was 0.48 ± 0.16 n = 6 ng/mL and the “Mean concentration ± SD in brain” value [1, 6] was 0.18 ± 0.065 n = 6 ng/g. For the same compound, the “Mean concentration ± SD in dorsal fat” value [1, 6] was 0.16 ± 0.064 n = 4 ng/g, the “Mean concentration ± SD in kidney” value [1, 6] was 7.0 ± 5.9 n = 6 ng/g and the “Mean concentration ± SD in liver” value [1, 6] was 1.8 ± 1.2 n = 6 ng/g. For the same compound, the “Mean concentration ± SD in lung” value [1, 6] was 0.92 ± 0.69 n = 6 ng/g, the “Mean concentration ± SD in muscle” value [1, 6] was 0.11 ± 0.047 n = 5 ng/g and the “Mean concentration ± SD in perirenal fat” value [1, 6] was 2.0 ± 1.7 n = 6 ng/g. For the same compound, the “Mean concentration ± SD in s.c. fat” value [1, 6] was 0.18 ± 0.086 n = 5 ng/g, the “Mean concentration ± SD in CB” value [1, 7] was 0.20 ± 0.10 n = 5 ng/mL and the “Mean concentration ± SD in PB” value [1, 7] was 0.28 ± 0.093 n = 6 ng/mL. For the same compound, the “Mean concentration ± SD in brain” value [1, 7] was 0.16 ± 0.043 n = 6 ng/g, the “Mean concentration ± SD in dorsal fat” value [1, 7] was 0.11 ± 0.033 n = 5 ng/g and the “Mean concentration ± SD in duodenum content” value [1, 7] was 9.0 ± 17 n = 6 ng/g. For the same compound, the “Mean concentration ± SD in kidney” value [1, 7] was 6.5 ± 5.9 n = 6 ng/g, the “Mean concentration ± SD in liver” value [1, 7] was 2.8 ± 1.9 n = 6 ng/g and the “Mean concentration ± SD in lung” value [1, 7] was 0.89 ± 0.57 n = 5 ng/g. For the same compound, the “Mean concentration ± SD in muscle” value [1, 7] was 0.17 ± 0.089 n = 6 ng/g, the “Mean concentration ± SD in perirenal fat” value [1, 7] was 4.6 ± 3.7 n = 6 ng/g and the “Mean concentration ± SD in s.c. fat” value [1, 7] was 0.27 ± 0.17 n = 5 ng/g. For the same compound, the “Concentration in bile fluid” value ([1]; 200 µg/kg BW inhalative, PMI 3 (72 h after euthanasia, room temperature), only sampled from 2 pigs) was 7.5–120 n = 2^2 ng/g, the “Mean concentration ± SD in PB” value ([1]; 5F-MDMB-P7AICA 200 µg/kg BW inhalative, PMI 0 (8 h after administration)) was 0.18 ± 0.11 n = 6 ng/mL and the “Postmortem redistribution (PMR)” value ([1]; 3 days storage at room temperature) was “no relevant PMR was observed”. For the same compound, the “Amount in the remaining tissues” value ([1]; PMI 0, tissues other than urine, bile fluid, duodenum content, kidney, perirenal fat) was “less than 1 ng/g”, the “Concentration change in bile and duodenum” value ([1]; PMI 2 compared to PMI 0, p < 0.05) was “decrease was statistically significant” and the “Concentration change in dorsal and subcutaneous fat specimens” value ([1]; over the PMI) was “significant lower concentrations over time”. The “CB concentration in fatal case” value [2] was 46 ng/mL and the “PB concentration in fatal case” value [2] was 5.7 ng/mL.
For `CN1CCCCC1Cn1cc(C(=O)c2cccc3ccccc23)c2ccccc21` (stereo not drawn) [AM-1220], the “central blood (CB) levels versus peripheral blood (PB) levels” value [3] is given as “significantly exceeded”.
In the case of `Cc1ccc(C(=O)c2cn(CCCCCF)c3ccccc23)c2ccccc12` [MAM-2201], the “central blood (CB) levels versus peripheral blood (PB) levels” value [3] is given as “significantly exceeded”.
In the case of `COC(=O)[C@@H](NC(=O)c1cn(CC2CCCCC2)c2ccccc12)C(C)(C)C` [MDMB-CHMICA], the “quotient of central/peripheral blood (C/P ratio)” value ([3]; 12 h after death, ref Gaunitz et al. [2018]) is given as roughly 1.
For `N#CCCCCn1cc(C(=O)c2cccc3ccccc23)c2ccccc21` [AM-2232], the “central blood (CB) levels versus peripheral blood (PB) levels” value [3] is given as “significantly exceeded”.
